“Also recorded” adds a separate entry of the source.
What was measured:
α-synuclein [1] = experiment: Western blot of α-synuclein in differentiated SH-SY5Y cells exposed to CBE; format: cell-based, human
Method: (§1) The treatment paradigm is depicted in FIG. 1. SH-SY5Y cells were grown in Dulbecco's modified Eagle medium with 10% fetal calf serum, 2 mM glutamine, and were subcultured 1:5 with TrypLE (GIBCO/Invitrogen; Carlsbad, Calif.) using standard tissue culture techniques. The cells were differentiated in neurobasal media supplemented with B-27 and 40 μM retinoic acid for 7 days (Pahlman et al., 1984). Cells were exposed to CBE at doses of 0, 12.5, 25, 50, 100 or 200 μM in dimethyl sulfoxide (DMSO; Sigma Chemicals; St. Louis, Mo.) for 48 h at 37° C. At this time, cultures were washed with HBSS and trypsinized for 10 min followed by centrifugation at 1,000×g for 10 min to pellet cells. Media was removed, and cells were lysed in 10 mM Tris/1 mM EDTA/protease inhibitor cocktail (1:1000; Sigma) by sonication. Samples were centrifuged at 1,000×g for 10 min; the supernatant fraction was decanted from particulate fraction. Following determination of protein concentration using the BCA protein assay (Pierce Chemicals, Rockford, Ill.), samples were frozen until used for Western blot analysis experiments.
Fractions from ventral mesencephalon separated by the centrifugation were utilized for immunoblotting experiments. Following homogenization in 10 mM Tris/1 mM EDTA/protease inhibitor cocktail (1:1000; Sigma, St. Louis, Mo.) by sonication, samples were centrifuged at 1,000×g for […]. The supernatant fraction (S1) was decanted and stored, and the pellet fraction containing nuclei and large membrane fragments were reconstituted in homogenization buffer (P1 fraction). The protein concentration was measured. After proteins were separated by SDS-PAGE and transferred to nitrocellulose, the blots were blocked and incubated overnight at 4° C. with anti-α-synuclein (Signet; Novus Biologicals, Littleton, Colo.; Abcam, Cambridge, Mass.; Santa Cruz Biotechnology, Santa Cruz, Calif.) or anti-GAPDH (Sigma). Appropriate secondary antibodies conjugated to HRP were applied, and blots were incubated with a chemiluminescent substrate (Pierce) and exposed to Kodak X-Omat Blue Film (Kodak, Rochester, N.Y.). Mouse or rabbit IgG was used in lieu of the primary antibody to ensure specificity in control experiments.
To test determine if the inhibition of GCase would elicit changes in cellular α-synuclein level, the protein levels were evaluated by using Western blot analysis in non-differentiated SH-SY5Y cells and cells differentiated to the neuronal phenotype, at 48 h following exposure to CBE. […] In order to determine whether increased levels of the protein were due to enhanced transcription, RT-PCR was performed to measure transcript levels in SH-SY5Y treated with CBE. […]

α-synuclein [2] = experiment: Western blot of α-synuclein in non-differentiated SH-SY5Y cells exposed to CBE; format: cell-based, human; details: non-differentiated neuroblastoma cells, 48 h exposure
Method: as §1
To test determine if the inhibition of GCase would elicit changes in cellular α-synuclein level, the protein levels were evaluated by using Western blot analysis in non-differentiated SH-SY5Y cells and cells differentiated to the neuronal phenotype, at 48 h following exposure to CBE. […]

α-synuclein mRNA [3] = experiment: RT-PCR of α-synuclein mRNA in SH-SY5Y cells treated with CBE; format: cell-based, human
Method: […] The cDNAs were prepared by reverse transcription (Superscript III; Invitrogen). PCR was performed using the ABI PRISM 7000 Sequence Detection System and primers. The cycle number at which each PCR reaction reached a significant threshold (CT) during the log phase of the amplification was used as a relative measure of transcript expression. The CT of the α-synuclein gene was calibrated against that of the reference gene […].
To test determine if the inhibition of GCase would elicit changes in cellular α-synuclein level, the protein levels were evaluated by using Western blot analysis in non-differentiated SH-SY5Y cells and cells differentiated to the neuronal phenotype, at 48 h following exposure to CBE. […] In order to determine whether increased levels of the protein were due to enhanced transcription, RT-PCR was performed to measure transcript levels in SH-SY5Y treated with CBE. […] These findings indicate that increased α-synuclein levels observed following CBE exposure are not due to enhanced expression (FIG. 3b).

SH-SY5Y cells = experiment: Overt toxicity in SH-SY5Y cells treated with GCase inhibitor; format: cell-based, human; details: SH-SY5Y cells treated with CBE
α-synuclein [4] = experiment: Western blot of α-synuclein in ventral mesencephalon fractions of CBE-treated mice; format: in vivo, C57BL/6 mice; details: single i.p. 200 mg/kg, 48 h
Method: (§2) The administration paradigm is depicted in FIG. 2. Mice (C57BL/6) were maintained on a 12 h light-dark cycle and given food and drinking water ad libitum. All animal procedures and care methods were approved by the Institutional Animal Care and Usage Committee. In experiments to test the effects of CBE on α-synuclein protein, C57BL/6 male mice, aged 8 weeks, were used as previously described with some modifications (Kanfer et al., 1975, Adachi and Volk, 1977, Kanfer et al., 1982). Mice (n=8/group) received a single i. p. injection of 200 mg/kg CBE (Sigma) in DMSO or the vehicle alone and killed 2 days after injection. For Western blot analyses, brains were removed, dissected on ice and frozen on dry ice until needed (Manning-Bog et al., 2002, Purisai et al., 2005). For experiments utilizing immunohistochemistry, brains were immersion fixed in 4% paraformaldehyde and successively cryoprotected in 10 and 30% sucrose over the course of 72 h (Manning-Bog et al., 2002, Manning-Bog et al., 2003). Brains were sectioned at 40-μm intervals and stored in cryopreservative solution at −20° C. until needed.
Fractions from ventral mesencephalon separated by the centrifugation were utilized for immunoblotting experiments. Following homogenization in 10 mM Tris/1 mM EDTA/protease inhibitor cocktail (1:1000; Sigma, St. Louis, Mo.) by sonication, samples were centrifuged at 1,000×g for […]. The supernatant fraction (S1) was decanted and stored, and the pellet fraction containing nuclei and large membrane fragments were reconstituted in homogenization buffer (P1 fraction). The protein concentration was measured. […]
C57BL/6 mice were exposed to a single injection of CBE and assessed for changes in α-synuclein at 48 h to determine whether diminished GCase activity is associated with alterations in the protein in vivo, specifically within the substantia nigra. […] In tissue homogenates from ventral mesencephalon of CBE vs. DMSO (vehicle)-treated mice, α-synuclein immunoreactivity was assessed by Western blot analysis.

α-synuclein [5] = experiment: α-synuclein immunohistochemistry in brain of CBE-treated mice; format: in vivo, C57BL/6 mice; details: single 200 mg/kg, 48 h
Method: as §2, with “needed. […]” for “needed.”
The effects of CBE exposure on α-synuclein within the ventral mesencephalon were also assessed histologically with immunohistochemistry. […]

GFAP = GFAP immunohistochemistry (astroglial activation) in brain of CBE-treated mice; format: in vivo, C57BL/6 mice; details: single 200 mg/kg, 48 h
Method: as §2, with “Brains were sectioned at 40-μm intervals and stored in cryopreservative solution at −20° C. until needed.” left out
Substantia nigra-containing tissue sections were immunostained using an antibody for the astrocytic marker, glial fibrillary acidic protein (GFAP). […] Alternatively, it may be that upregulation is responsible for increased α-synuclein levels in astrocytes. α-synuclein has been detected in cultured human astrocytes, and its expression level is responsive to cytokine exposure (Tanji et al., 2001).

α-synuclein [6] = experiment: α-synuclein in substantia nigra of aged mice treated sub-chronically with CBE; format: in vivo; details: sub-chronic CBE vs. DMSO
Source text: It is likely that sustained glucocerebrosidase inhibition promotes increased levels of the α-synuclein expression protein.

nigral neurons = experiment: Silver grain accumulation (degenerating neurons) in substantia nigra of CBE-treated mice; format: in vivo; details: CBE- vs. DMSO-treated mice
α-synuclein mRNA [7] = details: astroglial cultures challenged with CBE; cited from earlier work

Compound: O[C@H]1[C@H](O)[C@@H](O)[C@@H]2O[C@@H]2[C@@H]1O (racemic) [CBE, Conduritol B epoxide]
- immunoreactivity for α-synuclein in tissue culture (α-synuclein [1]; CBE-exposed neuroblastoma cells differentiated to neuronal phenotype): increased immunoreactivity for α-synuclein
- CBE concentrations at which increased α-synuclein levels were seen (α-synuclein [1]; differentiated SH-SY5Y cells, 48 h, Western blot): 50 to 200 µM
- dose at which increased α-synuclein protein levels peak (α-synuclein [1]; differentiated SH-SY5Y cells, 48 h, doses 0-200 μM tested): 50 µM
- α-synuclein protein levels (Western blot) (α-synuclein [1]; differentiated SH-SY5Y cells, 48 h exposure, CBE vs. vehicle): increased levels of α-synuclein protein were observed
- α-synuclein protein levels (Western blot) (α-synuclein [2]): No change in α-synuclein was detected
- α-synuclein gene expression (RT-PCR) (α-synuclein mRNA [3]; SH-SY5Y, any dose tested, 24 h following CBE treatment): No change in α-synuclein gene expression was detected
- α-synuclein transcription (mRNA, RT-PCR) (α-synuclein mRNA [3]; differentiated SH-SY5Y, increasing concentrations of CBE, (FIG. 3B legend)): No change in α-synuclein transcription was detected
- overt toxicity within cells (SH-SY5Y cells): no overt toxicity
- higher molecular forms of α-synuclein (SDS-stable aggregates) (α-synuclein [4]): No immunoreactivity for higher molecular forms of α-synuclein
- α-synuclein levels in P1 (particulate) fraction, monomeric 19 kDa band (α-synuclein [4]; CBE vs. DMSO, 200 mg/kg): Denser α-synuclein-positive bands; also recorded: levels of α-synuclein were increased in the particulate fraction; also recorded: an increase in α-synuclein levels
- α-synuclein levels in S1 (supernatant) fraction (α-synuclein [4]; CBE vs. DMSO, 200 mg/kg): no alteration; also recorded: no change
- α-synuclein in other brain regions (cortex, hippocampus) (α-synuclein [5]): No obvious changes in α-synuclein; also recorded: No alteration in protein levels
- α-synuclein immunoreactivity in substantia nigra neurons (α-synuclein [5]; CBE vs. vehicle): robust immunoreactivity was observed within the cell bodies; also recorded: enhanced immunoreactivity for α-synuclein was detected within the cytoplasm and cell nuclei; also recorded: accumulation of the protein within neuronal cell bodies; also recorded: apparent increase; also recorded: accumulation of α-synuclein (FITC) within cell bodies and processes
- α-synuclein within astrocytes of substantia nigra (dual-label immunofluorescence) (GFAP): enhanced α-synuclein was also detected within activated astrocytes; also recorded: colocalization of α-synuclein immunoreactivity was observed within astrocytes
- GFAP immunoreactivity / astroglial activation in substantia nigra (GFAP; CBE vs. vehicle): astroglial activation, as observed by GFAP immunoreactivity, was apparent; also recorded: apparent increase; also recorded: Glial activation was robust
- α-synuclein expression within substantia nigra (α-synuclein [6]): Increased α-synuclein expression
- silver grains in nigral neurons (degenerating neurons) (nigral neurons): Accumulation of silver grains in nigral neurons
- expression of α-synuclein mRNA (α-synuclein mRNA [7]): enhanced expression of α-synuclein mRNA

From patent publication US20150044193A1, “COMPOSITIONS AND METHODS FOR THE TREATMENT OF ALTERED a-SYNUCLEIN FUNCTION” (Neuraltus Pharmaceuticals, Inc., priority 2008, published 2015)
